Tested on: tyrosine kinase activity in xenograft tumor lysates
Test: PAMCHIP96 (140-peptide array) profiling of xenograft tumor lysates in absence or presence of MTKI
Type: biochemical
Settings: 5 μM
Method: 100 mg of frozen tumor or tissue blocks, or sections, are lysed in 1 ml of M-PER buffer (PIERCE) containing phosphatase and protease inhibitors (HALT, PIERCE). The suspension is mixed using a ULTRA-TURRAX blender (IKA werke), and centrifuged twice for 10 minutes at 12 000×g. Supernatant lysates are filtered through a 0.2 micrometer filter (Anotop 0.2 μm anopore filter; Whatmann). Lysates are flash frozen in liquid nitrogen and stored at −80C.
Just prior to the PAMCHIP experiment, total protein content is quantitated in the lysates and lysates are diluted to 1 mg/ml in a total volume of 200 μl, with M-PER phosphatase and protease inhibitors (HALT, PIERCE). 10 μg of total lysate (corresponding to 10 μl) will be used per well on the PAMCHIP96.
To all 200 μl lysates 10 units of benzonase (Novagen) is added and lysates are further incubated for 30 min on ice and next centrifuged for 10 minutes at 12 000×g. The supernatant is then 1:1 diluted with compound or DMSO diluted to the appropriate concentration in water, and lysates are further incubated exactly 60 min on ice. Meanwhile, a PAMCHIP96 tyrosine peptide chip (PAMGENE) is blocked with 2% BSA (filtered through a 0.2 μm anopore filter; Whatmann) using the standard setting of a PAMSTATION96 (PAMGENE).
The composition of the kinase buffer is as follows: 1×ABL buffer (NEB), 0.5 mg/ml BSA (from 10 mg/ml NEB stock), 100 μM ATP (dissolved and diluted in 1×ABL buffer), 5 μg/ml PY20-FITC (ExAlpha Biologicals, azide-free preparation). A twofold concentrated kinase buffer is prepared chilled on ice, DMSO or compound is added as appropriate, and the solution is added 1:1 to the (compound treated) ice cold lysates, and immediately applied to a tyrosine peptide PAMCHIP96. The assay is run on a PAMSTATION96 according to standard procedures: after loading of the plate, solution is pumped once onto the wells, a first exposure is read (150 mSec) and then a kinetic reading program (reading every 5 min for 150 mSec) is run for 60 min. Lysates are run in 6 technical replicates for each condition; replicates are always applied horizontally next to each other to avoid vertical strip effects of the chip.
The data (spot images) are further quantified and linked to the peptide identities using EVOLVE PAMGRID software (PAMGENE). The quantified data are then fit to a curve using CurveFitHT software (PAMGENE) using the Vinip2 curve fitting algorithm, applied on the first 30 min of the assay; the initial velocity is derived at the first kinetic time point read. All subsequent data analyses were done on initial velocities (Vini) using the software packages Omniviz and R (Ihaka, R. and Gentlemen, R. (1996) R: a language for data analysis and graphics. J. Comput. Graph. Stat., 5, 299-314).
After replacing the Vini's lower than 0.1 by 0.1, all Vini's were log 2-transformed to approach normality. […] This test was done for each peptide separately using a mixed model (Littell, R. C., Milliken, G. A., Stroup, W. W., Wolfinger, R. D. 1996. SAS system for mixed models. Cary, N. C.: SAS Institute Inc.) allowing the incorporation of both technical variation (i.e., the variation across replicates) and biological variation (i.e., the variation among the various responding and non-responding cell lines or tumors). Variation between cell lines or tumors in Vini and in treatment effect on Vini was modeled respectively by random intercepts and random compound effects per cell line or tumor, nested in response status. The difference in compound-induced reduction in Vini between responding and non-responding cell lines or tumors was tested through the interaction between compound treatment and response status, both modeled as fixed effects.

SMILES: COc1cc2ncnc3c2cc1OCCCCCN(C)Cc1ccc(Br)cc1N3 [MTKI, 4,6-ethanediylidenepyrimido[4,5-b][6,1,12]benzoxadiazacyclopentadecine, 17-bromo-8,9,10,11,12,13,14,19-octahydro-20-methoxy-13-methyl-]
- ratio of initial velocity of peptide phosphorylation (H322 xenograft tumor lysate, CDK7_157_169_S164): 0.77
- ratio of initial velocity of peptide phosphorylation (H322 xenograft tumor lysate, EPHB1_921_933_Y928): 0.75
- ratio of initial velocity of peptide phosphorylation (H322 xenograft tumor lysate, FAK1_569_581_Y576/Y577): 0.82
- ratio of initial velocity of peptide phosphorylation (H322 xenograft tumor lysate, GSK3B_209_221_Y216): 0.77
- ratio of initial velocity of peptide phosphorylation (H322 xenograft tumor lysate, K2C6E_53_65_S59): 0.80
- ratio of initial velocity of peptide phosphorylation (H322 xenograft tumor lysate, MBP_259_271_Y261/Y268/S266): 0.65
- ratio of initial velocity of peptide phosphorylation (H322 xenograft tumor lysate, MK10_216_228_T221/Y223): 0.68
- ratio of initial velocity of peptide phosphorylation (H322 xenograft tumor lysate, NCF1_313_325_S315/S320): 0.78
- ratio of initial velocity of peptide phosphorylation (H322 xenograft tumor lysate, NTRK2_699_711_Y702/Y706/Y707): 0.76
- ratio of initial velocity of peptide phosphorylation (H322 xenograft tumor lysate, P2AB_297_309_T304/Y307): 0.77
- ratio of initial velocity of peptide phosphorylation (H322 xenograft tumor lysate, PGFRB_572_584_Y579/Y581): 0.67
- ratio of initial velocity of peptide phosphorylation (H322 xenograft tumor lysate, RAF1_331_343_S337/S338/Y339/Y340): 0.79
- ratio of initial velocity of peptide phosphorylation (H322 xenograft tumor lysate, RB_804_816_S807/S811): 0.75
- ratio of initial velocity of peptide phosphorylation (H322 xenograft tumor lysate, SYN1_2_14_S9): 0.78
- ratio of initial velocity of peptide phosphorylation (H322 xenograft tumor lysate, TYRO3_679_691_Y686): 0.80
- ratio of initial velocity of peptide phosphorylation (H322 xenograft tumor lysate, VEGFR2_944_956_Y951): 0.75
- ratio of initial velocity of peptide phosphorylation (H322 xenograft tumor lysate, VINC_815_827_Y821): 0.76
- ratio of initial velocity of peptide phosphorylation (H3255 xenograft tumor lysate, CDK7_157_169_S164): 0.45
- ratio of initial velocity of peptide phosphorylation (H3255 xenograft tumor lysate, EPHB1_921_933_Y928): 0.44
- ratio of initial velocity of peptide phosphorylation (H3255 xenograft tumor lysate, FAK1_569_581_Y576/Y577): 0.48
- ratio of initial velocity of peptide phosphorylation (H3255 xenograft tumor lysate, GSK3B_209_221_Y216): 0.57
- ratio of initial velocity of peptide phosphorylation (H3255 xenograft tumor lysate, K2C6E_53_65_S59): 0.56
- ratio of initial velocity of peptide phosphorylation (H3255 xenograft tumor lysate, MBP_259_271_Y261/Y268/S266): 0.47
- ratio of initial velocity of peptide phosphorylation (H3255 xenograft tumor lysate, MK10_216_228_T221/Y223): 0.31
- ratio of initial velocity of peptide phosphorylation (H3255 xenograft tumor lysate, NCF1_313_325_S315/S320): 0.73
- ratio of initial velocity of peptide phosphorylation (H3255 xenograft tumor lysate, NTRK2_699_711_Y702/Y706/Y707): 0.48
- ratio of initial velocity of peptide phosphorylation (H3255 xenograft tumor lysate, P2AB_297_309_T304/Y307): 0.66
- ratio of initial velocity of peptide phosphorylation (H3255 xenograft tumor lysate, PGFRB_572_584_Y579/Y581): 0.66
- ratio of initial velocity of peptide phosphorylation (H3255 xenograft tumor lysate, RAF1_331_343_S337/S338/Y339/Y340): 0.53
- ratio of initial velocity of peptide phosphorylation (H3255 xenograft tumor lysate, RB_804_816_S807/S811): 0.52
- ratio of initial velocity of peptide phosphorylation (H3255 xenograft tumor lysate, SYN1_2_14_S9): 0.50
- ratio of initial velocity of peptide phosphorylation (H3255 xenograft tumor lysate, TYRO3_679_691_Y686): 0.51
- ratio of initial velocity of peptide phosphorylation (H3255 xenograft tumor lysate, VEGFR2_944_956_Y951): 0.52
- ratio of initial velocity of peptide phosphorylation (H3255 xenograft tumor lysate, VINC_815_827_Y821): 0.40
- ratio of initial velocity of peptide phosphorylation (SUM149 xenograft tumor lysate, EPHB1_921_933_Y928): 0.85
- ratio of initial velocity of peptide phosphorylation (SUM149 xenograft tumor lysate, FAK1_569_581_Y576/Y577): 0.94
- ratio of initial velocity of peptide phosphorylation (SUM149 xenograft tumor lysate, GSK3B_209_221_Y216): 0.91
- ratio of initial velocity of peptide phosphorylation (SUM149 xenograft tumor lysate, K2C6E_53_65_S59): 0.86
- ratio of initial velocity of peptide phosphorylation (SUM149 xenograft tumor lysate, MBP_259_271_Y261/Y268/S266): 1.04
- ratio of initial velocity of peptide phosphorylation (SUM149 xenograft tumor lysate, MK10_216_228_T221/Y223): 0.75
- ratio of initial velocity of peptide phosphorylation (SUM149 xenograft tumor lysate, NCF1_313_325_S315/S320): 0.94
- ratio of initial velocity of peptide phosphorylation (SUM149 xenograft tumor lysate, NTRK2_699_711_Y702/Y706/Y707): 0.85
- ratio of initial velocity of peptide phosphorylation (SUM149 xenograft tumor lysate, P2AB_297_309_T304/Y307): 0.87
- ratio of initial velocity of peptide phosphorylation (SUM149 xenograft tumor lysate, PGFRB_572_584_Y579/Y581): 0.69
- ratio of initial velocity of peptide phosphorylation (SUM149 xenograft tumor lysate, RAF1_331_343_S337/S338/Y339/Y340): 0.99
- ratio of initial velocity of peptide phosphorylation (SUM149 xenograft tumor lysate, RB_804_816_S807/S811): 0.83
- ratio of initial velocity of peptide phosphorylation (SUM149 xenograft tumor lysate, SYN1_2_14_S9): 1.01
- ratio of initial velocity of peptide phosphorylation (SUM149 xenograft tumor lysate, TYRO3_679_691_Y686): 1.03
- ratio of initial velocity of peptide phosphorylation (SUM149 xenograft tumor lysate, VEGFR2_944_956_Y951): 0.86
- ratio of initial velocity of peptide phosphorylation (SUM149 xenograft tumor lysate, VINC_815_827_Y821): 0.75

— patent US20100234238A1, “METHOD FOR PROFILING KINASE INHIBITORS” (Janssen Pharmaceutica N V, priority 2006, published 2010)
